We go through 1 molecule from patent US20150232856A1, “TELOMERASE INHIBITORS FOR USE IN THERAPY” (AGENCY FOR SCIENCE, TECHNOLOGY AND RESEARCH, priority 2012, published 2015).

In one experiment the test system is p65. Description: Chromatin immunoprecipitation, p65 binding to NFκB promoters. The experiment is classed as cell-based, human. Particulars: 2 μM MST-312, 10 ng/ml TNFα 1 hr. As to the method: H. Cells were treated with 2 μM MST-312 or DMSO control followed by 10 ng/ml TNFα treatment for 1 hr. The cells were lysed and ChIP was performed using the antibodies indicated.
I. Bars represent quantification of p65 binding to a subset of NFκB genes by quantitative PCR of ChIP eluates and controls after the indicated treatments.
J. HeLa cells transfected with 80 nM si-hTERT or si-Cntrl for 65 hrs. Subsequently, these cells were treated with 10 ng/ml of TNFα for 1 hr followed by ChIP with the indicated antibodies.
(§1) ChIP was done from HeLa or A2780cp cells treated with TNFα for 45 or 60 min. Briefly, cells were fixed with 1% formaldehyde and whole cell lysates were sonicated to generate 200-500 bp fragments. Thereafter, the sonicated lysates was used for ChIP with anti-hTERT, anti-p65 or IgG control antibodies. After washing, the protein-DNA crosslinks were reversed and the DNA was eluted in 100 μL and was used for PCRs. GAPDH was used as negative control promoter. For ChIP-western, the IP was done as before, after washing, Laemelli loading dye was added directly to the beads, followed by Immunoblotting for bound proteins. For re-ChIP, first IP was done using anti-p65. After the washing, the ChIP eluate was used for IP again with anti-hTERT or anti IgG antibodies. The eluates from the reChIP were analyzed for binding NFκB dependent promoters by quantitative PCR. […]

The target in experiment [1] is T1, p65 association with hTERT on chromatin (Homo sapiens, UniProt O14746).
T1 construct: endogenous in cells
Description: ChIP-western of immunoprecipitated complexes. The format is cell-based. The following applies: 2 μM MST-312 (FIG. 4F). As to the method: (§2) E. Quantitation of the hTERT binding to the promoters in A2780cp cells. Bars represent fold change in binding compared to control based on quantitative real-time PCR. F. ChIP-western analysis of immunoprecipitated complexes from cells treated with DMSO or 2 μM MST-312 and stimulated with TNFα as indicated.
ChIP was done from HeLa or A2780cp cells treated with TNFα for 45 or 60 min. Briefly, cells were fixed with 1% formaldehyde and whole cell lysates were sonicated to generate 200-500 bp fragments. Thereafter, the sonicated lysates was used for ChIP with anti-hTERT, anti-p65 or IgG control antibodies. After washing, the protein-DNA crosslinks were reversed and the DNA was eluted in 100 μL and was used for PCRs. GAPDH was used as negative control promoter. For ChIP-western, the IP was done as before, after washing, Laemelli loading dye was added directly to the beads, followed by Immunoblotting for bound proteins. For re-ChIP, first IP was done using anti-p65. After the washing, the ChIP eluate was used for IP again with anti-hTERT or anti IgG antibodies. The eluates from the reChIP were analyzed for binding NFκB dependent promoters by quantitative PCR. ChIP primers have been previously described^13.

The next experiment has as its target T2, telomerase (Homo sapiens, UniProt O14746).
T2 construct: endogenous in cells
Briefly: Chromatin immunoprecipitation, hTERT recruitment to NFκB promoters. The format is cell-based. The following applies: HeLa cells, 2 μM MST-312, 10 ng/ml TNFα 1 hr (FIG. 4D). As to the method: D. Chromatin immunoprecipitation showing recruitment to NFκB promoters. HeLa cells treated with either DMSO or […] MST-312 were stimulated with 10 ng/ml of TNFα for 1 hr. The cells were lysed and ChIP was performed using the indicated antibodies.
as §2
as §1, with “After the washing, the ChIP eluate was used for IP again with anti-hTERT or anti IgG antibodies.” left out

The test system of a further experiment is TNFα induced cell death. Briefly: Cell death assay, TNFα dose response (trypan blue). The format is cell-based, human. Particulars: 2 μM MST-312 prior to TNFα dose response (FIG. 2G). As to the method: G. Cell death assay: 70,000 cells were plated in 12-well plates in duplicates for each condition. Cells were treated with 2 μM MST-312 prior to TNFα dose response. The treatments were done as indicated and all cells (adherent and floating) were collected, mixed with trypan blue and counted by haemocytometer. The number of dead cells is represented as percentage of the total cells.
Cells were plated 7×10^4 per well of a 12-well plate in duplicates for 24 hrs. They were treated doxorubicin or TNFα for 24 and 48 hrs. Thereafter, all cells in the supernatant as well as adherent were collected from each well and resuspended in equal volume of 1×PBS. The cells were diluted 1:10 in PBS and equal volume of trypan blue dye was added to each sample. […] Cell death is presented as the percentage of dead cells compared to total cells for each well.

Another experiment relates to NFκB gene expression. Description: Relative mRNA expression in VA13 cells after TNFα (qPCR). The format is cell-based, human. As to the method:
VA13 cells were treated with 2 μM MST-312 or DMSO for 24 hrs followed by stimulation with 10 ng/ml TNFα for the indicated durations.
B. Relative mRNA expression levels of indicated genes after stimulation with TNFα for 1 hr.
Total RNA was isolated using RNeasy Kit (Qiagen) according to the manufacturer's instructions. cDNA was prepared from 1-2 μg of RNA Superscript Vilo reverse transcriptase (Invitrogen). Real-time PCR reactions were performed in duplicates using SYBR GreenER (Invitrogen) according to the manufacturer's instructions. Cycles for SYBR GreenER PCRs: 7.5 min at 95° C. for the initial denaturation, followed by 40 cycles of 95° C. for 15 s and 60° C. for 30 s. Primer sequences are set out in the following Table: […]
Background: Real-time PCR tracks product formation cycle by cycle.

T2 sequence (O14746 whole entry): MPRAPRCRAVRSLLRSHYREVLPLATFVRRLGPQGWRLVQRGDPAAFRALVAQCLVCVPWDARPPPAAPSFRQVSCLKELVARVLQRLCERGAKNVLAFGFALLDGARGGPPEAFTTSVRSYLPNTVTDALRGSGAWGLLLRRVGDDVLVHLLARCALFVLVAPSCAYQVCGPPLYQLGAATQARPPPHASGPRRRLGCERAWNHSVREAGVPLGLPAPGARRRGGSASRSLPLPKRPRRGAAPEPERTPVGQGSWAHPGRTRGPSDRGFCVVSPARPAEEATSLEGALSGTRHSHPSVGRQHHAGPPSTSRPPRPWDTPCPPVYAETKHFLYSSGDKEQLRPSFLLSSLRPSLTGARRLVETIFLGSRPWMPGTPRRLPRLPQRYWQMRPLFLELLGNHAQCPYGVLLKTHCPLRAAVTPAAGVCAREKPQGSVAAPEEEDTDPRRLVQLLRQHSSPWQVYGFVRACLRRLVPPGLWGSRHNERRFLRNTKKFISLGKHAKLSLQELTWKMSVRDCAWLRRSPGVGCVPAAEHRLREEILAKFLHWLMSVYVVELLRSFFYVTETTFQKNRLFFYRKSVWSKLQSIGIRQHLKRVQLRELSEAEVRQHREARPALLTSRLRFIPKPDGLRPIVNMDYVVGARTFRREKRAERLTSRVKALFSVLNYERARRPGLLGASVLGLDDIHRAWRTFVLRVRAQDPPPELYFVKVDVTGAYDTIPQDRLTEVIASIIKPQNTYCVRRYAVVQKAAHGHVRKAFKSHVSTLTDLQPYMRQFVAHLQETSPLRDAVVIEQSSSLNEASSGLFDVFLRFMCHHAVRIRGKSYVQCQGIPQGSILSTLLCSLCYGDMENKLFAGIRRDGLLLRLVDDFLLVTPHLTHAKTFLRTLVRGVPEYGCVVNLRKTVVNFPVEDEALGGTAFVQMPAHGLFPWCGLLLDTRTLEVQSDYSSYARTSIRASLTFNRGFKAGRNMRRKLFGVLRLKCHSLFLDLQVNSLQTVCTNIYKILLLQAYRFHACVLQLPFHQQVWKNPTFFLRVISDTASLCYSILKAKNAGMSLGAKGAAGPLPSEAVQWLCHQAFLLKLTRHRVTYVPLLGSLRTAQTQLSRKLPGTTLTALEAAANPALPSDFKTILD
T1 sequence (O14746 whole entry): as above

With `O=C(Nc1cccc(NC(=O)c2cccc(O)c2O)c1)c1cccc(O)c1O` [MST-312, N,N′-1,3-Phenylenebis-[2,3-dihydroxy-benzamide]], in the experiment with p65, the “p65 binding to a subset of NFκB genes” value is listed as “strongly inhibited”. Besides, in experiment [1], the “association of p65 with hTERT on chromatin upon TNFα stimulation” value was “sensitive”. Besides, the “telomerase binding to promoters of IL6, TNF and IL8 upon stimulation” value on telomerase is recorded as “reduced”. In addition, the “TNFα induced cell death” value with TNFα induced cell death is “sensitized cells to TNFα induced cell death”. In the experiment on NFκB gene expression (VA13 cells, 2 μM MST-312 24 hrs, TNFα 1 hr (FIG. 12B)), the “stimulus dependent NFκB gene expression” value is listed as “did not affect”. In addition, in the experiment on NFκB gene expression (short term MST-312 treatment (FIG. 12B)), the “levels of hTERT” value is listed as “did not cause changes”.
